Experimental data: ChEMBL document CHEMBL1147641, “Highly potent and long-acting trimeric and tetrameric inhibitors of influenza virus neuraminidase” (Bioorg Med Chem Lett, 2004)
Converted amounts (≈) assume the structure as drawn.

Assays:
Influenza B virus = experiment: Antiinfluenza activity of compound against Influenza B/Harbin/7/95 in influenza cytopathic effect (CPE) assay; assay type: functional, organism-based
Mus musculus [1] = experiment: Reduction in virus titre taken from mouse infected with Influenza A/Singapore/1/57 at 1.0 mg/kg dose in 7 day mouse influenza prevention assay; assay type: functional
Mus musculus [2] = experiment: Reduction in virus titre taken from mouse infected with Influenza A/Singapore/1/57 at 0.1 mg/kg dose in 7 day mouse influenza prevention assay; assay type: functional
Influenza A virus = experiment: Antiinfluenza activity of compound against Influenza A/Sydney/5/97 in influenza cytopathic effect (CPE) assay; assay type: functional, organism-based
Mus musculus [3] = experiment: Number of virus free mice from total 10 mice infected with Influenza A/Singapore/1/57 after 12.5 mg/kg of intranasal administration for 172 hr prior to viral infection; assay type: functional
Mus musculus [4] = experiment: Number of virus free mice from total 9 mice infected with Influenza A/Singapore/1/57 after 12.5 mg/kg of intranasal administration for 51 hr prior to viral infection; assay type: functional
Mus musculus [5] = experiment: Reduction in virus titre taken from mouse infected with Influenza A/Singapore/1/57 at 0.4 mg/kg dose in 7 day mouse influenza prevention assay; assay type: functional
Mus musculus [6] = experiment: Reduction in virus titre taken from mouse infected with Influenza A/Singapore/1/57 at 1.6 mg/kg dose in 7 day mouse influenza prevention assay; assay type: functional
Mus musculus [7] = experiment: Number of virus free mice from total 9 mice infected with Influenza A/Singapore/1/57 after 12.5 mg/kg of intranasal administration for 145 hr prior to viral infection; assay type: functional
Mus musculus [8] = experiment: Number of virus free mice from total 10 mice infected with Influenza A/Singapore/1/57 after 12.5 mg/kg of intranasal administration for 117 hr prior to viral infection; assay type: functional
Mus musculus [9] = experiment: Number of virus free mice from total 8 mice infected with Influenza A/Singapore/1/57 after 12.5 mg/kg of intranasal administration for 172 hr prior to viral infection; assay type: functional
Mus musculus [10] = experiment: Reduction in virus titre taken from mouse infected with Influenza A/Singapore/1/57 at 0.01 mg/kg dose in 7 day mouse influenza prevention assay; assay type: functional

| Compound | EC50 (Influenza B virus) [ng/mL] | Effectiveness (Mus musculus [1]) [%] | Effectiveness (Mus musculus [2]) [%] | EC50 (Influenza A virus) [ng/mL] | No. of virus free mice (Mus musculus [3]) | No. of virus free mice (Mus musculus [4]) | Effectiveness (Mus musculus [5]) [%] | Effectiveness (Mus musculus [6]) [%] | No. of virus free mice (Mus musculus [7]) | No. of virus free mice (Mus musculus [8]) | No. of virus free mice (Mus musculus [9]) | Effectiveness (Mus musculus [10]) [%] |
| --- | --- | --- | --- | --- | --- | --- | --- | --- | --- | --- | --- | --- |
| CC(=O)N[C@H]1[C@H]([C@H](OC(=O)NCCCCCCNC(=O)CC(O)(CC(=O)NCCCCCCNC(=O)O[C@@H]([C@@H]2OC(C(=O)O)=C[C@H](N=C(N)N)[C@H]2NC(C)=O)[C@H](O)CO)C(=O)NCCCCCCNC(=O)O[C@@H]([C@@H]2OC(C(=O)O)=C[C@H](NC(=N)N)[C@H]2NC(C)=O)[C@H](O)CO)[C@H](O)CO)OC(C(=O)O)=C[C@@H]1N=C(N)N | 2.48 (≈ 1.58 nM) | 99.11 | 85.88 | 0.159 (≈ 0.102 nM) | – | – | – | – | – | – | – | – |
| CC(=O)N[C@H]1[C@H]([C@H](OC(=O)NCCCCCCNC(=O)[C@H]2C[C@@H](C(=O)NCCCCCCNC(=O)O[C@@H]([C@@H]3OC(C(=O)O)=C[C@H](NC(=N)N)[C@H]3NC(C)=O)[C@H](O)CO)C[C@@H](C(=O)NCCCCCCNC(=O)O[C@@H]([C@@H]3OC(C(=O)O)=C[C@H](NC(=N)N)[C@H]3NC(C)=O)[C@H](O)CO)C2)[C@H](O)CO)OC(C(=O)O)=C[C@@H]1NC(=N)N | 0.438 (≈ 0.276 nM) | 98.32 | 94.38 | 0.3 (≈ 0.189 nM) | – | – | – | – | – | – | – | – |
| CC(=O)N[C@H]1[C@H]([C@H](O)[C@H](O)CO)OC(C(=O)O)=C[C@@H]1NC(=N)N [ZANAMIVIR] | 12.2 (≈ 36.7 nM) | 81.76 | – | 32.5 (≈ 97.8 nM) | 0 | 3 | 0 | 97.03 | 3 | 1 | 0 | – |
| CC(=O)N[C@H]1[C@H]([C@H](OC(=O)NCCCCCCNC(=O)c2cc(C(=O)NCCCCCCNC(=O)O[C@@H]([C@@H]3OC(C(=O)O)=C[C@H](N=C(N)N)[C@H]3NC(C)=O)[C@H](O)CO)cc(C(=O)NCCCCCCNC(=O)O[C@@H]([C@@H]3OC(C(=O)O)=C[C@H](NC(=N)N)[C@H]3NC(C)=O)[C@H](O)CO)c2)[C@H](O)CO)OC(C(=O)O)=C[C@@H]1N=C(N)N | 1.33 (≈ 0.842 nM) | – | 96.24 | 0.82 (≈ 0.519 nM) | – | – | – | – | – | – | – | 70.15 |
| CC(=O)N[C@H]1[C@H]([C@H](OC(=O)NCCCCCCNC(=O)CC(CC(=O)NCCCCCCNC(=O)O[C@@H]([C@@H]2OC(C(=O)O)=C[C@H](N=C(N)N)[C@H]2NC(C)=O)[C@H](O)CO)C(=O)NCCCCCCNC(=O)O[C@@H]([C@@H]2OC(C(=O)O)=C[C@H](NC(=N)N)[C@H]2NC(C)=O)[C@H](O)CO)[C@H](O)CO)OC(C(=O)O)=C[C@@H]1N=C(N)N | 0.81 (≈ 0.524 nM) | 98.24 | 68.78 | 0.4 (≈ 0.259 nM) | – | – | – | – | – | – | – | – |
| CC(=O)N[C@H]1[C@H]([C@H](OC(=O)NCCCCCCN)[C@H](O)CO)OC(C(=O)O)=C[C@@H]1NC(=N)N | 213 (≈ 449 nM) | – | – | 438 (≈ 923 nM) | – | – | – | – | – | – | – | – |
| CC(=O)N[C@H]1[C@H]([C@H](OC(=O)NCCCCCCNC(=O)c2cc(C(=O)NCCCCCCNC(=O)O[C@@H]([C@@H]3OC(C(=O)O)=C[C@H](N=C(N)N)[C@H]3NC(C)=O)[C@H](O)CO)c(C(=O)NCCCCCCNC(=O)O[C@@H]([C@@H]3OC(C(=O)O)=C[C@H](NC(=N)N)[C@H]3NC(C)=O)[C@H](O)CO)cc2C(=O)NCCCCCCNC(=O)O[C@@H]([C@@H]2OC(C(=O)O)=C[C@H](N=C(N)N)[C@H]2NC(C)=O)[C@H](O)CO)[C@H](O)CO)OC(C(=O)O)=C[C@@H]1N=C(N)N | 0.95 (≈ 0.457 nM) | 99.68 | 74.88 | 0.53 (≈ 0.255 nM) | – | – | – | – | – | – | – | – |
| CC(=O)N[C@H]1[C@H]([C@H](OC(=O)NCCCCCCNC(=O)CN(CCN(CC(=O)NCCCCCCNC(=O)O[C@@H]([C@@H]2OC(C(=O)O)=C[C@H](N=C(N)N)[C@H]2NC(C)=O)[C@H](O)CO)CC(=O)NCCCCCCNC(=O)O[C@@H]([C@@H]2OC(C(=O)O)=C[C@H](NC(=N)N)[C@H]2NC(C)=O)[C@H](O)CO)CC(=O)NCCCCCCNC(=O)O[C@@H]([C@@H]2OC(C(=O)O)=C[C@H](N=C(N)N)[C@H]2NC(C)=O)[C@H](O)CO)[C@H](O)CO)OC(C(=O)O)=C[C@@H]1N=C(N)N | 2.84 (≈ 1.34 nM) | – | 95.53 | 1.07 (≈ 0.505 nM) | – | – | – | – | – | – | – | 68.38 |
